Where two headings read alike, the source gives them in different places.
How the values were obtained:
[1] = test system: human malignant glioblastoma cell U87MG xenograft; assay: Test V: human malignant glioblastoma U87MG xenograft in nude mice; assay type: in vivo
Protocol: U87-MG cells were expanded by in vitro culture, cells at log phase were harvested and resuspended in EMEM, adjusted to a cell density of 2.8×10^7/mL, then implanted subcutaneously in the right axilla of nude mice.
During the trial, tumor diameters and animal weights were measured twice a week. Tumor Volume (TV) was calculated by the following equation: TV=1/2×a×b^2, wherein a, b represent length and width, respectively. Based on the measurement, Relative Tumor Volume (RTV) was calculated by the following equation: RTV=Vt/V0, wherein V0 is the tumor volume measured when divided for administration (i.e., d0), Vt is the tumor volume measured at each timepoint.

[2] = biological target: T1, c-Met kinase domain recombinant protein (Homo sapiens, UniProt P08581); assay: biochemical; conditions: read-out: Inhibition rate at 10 μM (%)
T1 construct: 50 μL diluted solution of c-Met kinase domain recombinant protein in reaction buffer was added to initiate the reaction
T1 sequence (P08581 1078-1345 limits assumed): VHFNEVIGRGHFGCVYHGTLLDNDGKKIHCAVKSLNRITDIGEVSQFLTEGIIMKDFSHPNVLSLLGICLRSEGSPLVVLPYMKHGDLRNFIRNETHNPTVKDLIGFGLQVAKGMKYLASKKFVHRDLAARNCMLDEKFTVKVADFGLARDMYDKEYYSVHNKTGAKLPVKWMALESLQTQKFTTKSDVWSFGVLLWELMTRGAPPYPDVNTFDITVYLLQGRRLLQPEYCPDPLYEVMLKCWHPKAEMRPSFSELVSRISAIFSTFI
In short: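 Recombinant c-Met kinase domain phosphorylated immobilised Poly(Glu,Tyr)4:1 for 1 h at 37 °C in 50 mM HEPES pH 7.4, 50 mM MgCl2, 0.5 mM MnCl2, 0.2 mM Na3VO4, 1 mM DTT with ATP. Product measured by anti-phosphotyrosine PY99 ELISA (HRP, 490 nm), giving percent inhibition; ATP-free wells served as control.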

[3] = test system: BaF3/TPR-Met cell; assay: Test III: growth inhibition of engineered BaF3/TPR-Met cells (MTT); assay type: cell-based; conditions: Mus musculus, BaF3, 72 h
Protocol: Assays on the growth inhibition of the compounds against engineered BaF3/TPR-Met cell (engineered cell line having TPR-Met fusion protein stably expressed in cytoplasm, persistently activated, Met dependent sensitive cell line; BaF3 cell was purchased from DSMZ, German) were detected using microculture tetrozolium (MTT) staining. A certain amount of BaF3/TPR-Met cells at log phase were inoculated into 96-well culture plate at 90 µL per well, incubated overnight and then 10 μL compound at various concentrations or vehicle control (normal saline) was added, each concentration was tested in triplicate. After incubation with compound for 72 hours, the incubation was terminated, MTT solution (5 mg/mL) was added at 20 μL per well, incubated at 37° C. for 4 hours, then 100 μL triplet solution (10% SDS−5% isobutanol−0.01M HCl) was added, incubated overnight at 37° C., OD value was measured at 570 nm. […] Experiments were conducted in duplicates.

[4] = biological target: T1, c-Met kinase domain recombinant protein; assay: biochemical; conditions: for inhibition at 0.1 µM: read-out: Average inhibition rate at 0.1 μM (%); for inhibition at 1 µM: read-out: Average inhibition rate at 1 μM (%); for inhibition at 10 µM: read-out: Average inhibition rate at 10 μM (%)
In short: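 IC50 came from a four-parameter fit of inhibition rates measured by anti-phosphotyrosine (PY99/HRP) ELISA at 490 nm. The reaction ran 1 hour at 37° C with 5 μM ATP, c-Met kinase domain protein and Poly(Glu,Tyr)4:1-coated wells, in HEPES pH 7.4 buffer containing MgCl2, MnCl2, Na3VO4 and DTT.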

[5] = test system: MKN45 cell; assay: Test III: growth inhibition of gastric tumor cell MKN45 (SRB); assay type: cell-based; conditions: Homo sapiens; for inhibition at 0.2 µM: MKN-45, read-out: Cell proliferation inhibition rate at 200 nM (%), MKN45, 200 nM
Protocol: Assays on the growth inhibition of the compounds against gastric tumor cell MKN45, non-small cell carcinoma EBC-1 cell (both are MET persistent activated cell lines due to MET gene amplification, and are Met dependent tumor cell lines, MKN45 cell was purchased from JCRB, Japan, EBC-1 cell was purchased from ATCC, USA) were detected using sulforhodamine B (SRB) staining. […] After incubation with compound for 72 hours, the incubation was terminated, adherent cells were retained and medium was discarded, 10% (w/v) trichloroacetic acid (100 μL pre well) was added, the cells were fixed at 4° C. for 1 hour, then rinsed with distilled water for 5 times, after dried at room temperature, SRB solution (4 mg/mL, dissolved in 1% glacial acetic acid) was added at 100 μL per well, incubated and stained at room temperature for 15 minutes, then rinsed with 1% glacial acetic acid for 5 times to remove any unbound SRB, dried at room temperature, then 10 mM Tris solution was added at 100 μL per well, the optical density (OD) value at 515 nm was measured using VERSMax microplate reader.
Experiments were conducted in duplicates. IC50 value was calculated by fitting the data for a four parameter fit using inhibition curve, the results are shown below in Table 2.

[6] = 50 mg/kg po qd/14, end of administration
[7] = MKN-45, read-out: Cell proliferation inhibition rate at 1 μM (%), MKN45, 1 μM, 72 hours

| Structure (SMILES) | state and survival of mice during the administration period ([1]; 50 mg/kg daily for 14 days) | antitumor activity (in words) ([1]; 50 mg/kg daily, d14) | RTV (mean ± SE) [1, 6] | TV (mm^3, mean ± SE) d21 [1, 6] | Weight (g) d21 [1, 6] | GI (%) ([1]; 50 mg/kg po qd/14, end of the trial) | T/C (%) ([1]; 50 mg/kg po qd/14, end of the trial (d14)) | inhibition at 10 µM [2] | inhibition at 0.2 µM ([3]; read-out: Cell proliferation inhibition rate at 200 nM (%)) | inhibition at 1 µM ([3]; read-out: Cell proliferation inhibition rate at 1 μM (%)) | IC50 [4] | inhibition at 0.1 µM [4] | inhibition at 1 µM [4] | inhibition at 10 µM [4] | inhibition at 1 µM [5, 7] | inhibition at 1 µM ([5]; MKN-45, 72 h, read-out: Cell proliferation inhibition rate at 1 μM (%)) | inhibition at 0.2 µM ([5]; 72 hours) |
| --- | --- | --- | --- | --- | --- | --- | --- | --- | --- | --- | --- | --- | --- | --- | --- | --- | --- |
| Cn1cc(-c2cnc3cnn(S(=O)(=O)c4cnc5ccccn45)c3c2)cn1 [Compound 19, 1-(imidazo[1,2-a]pyridine-3-sulfonyl)-6-[(1-methyl)-4-pyrazolyl]-1-H-pyrazolo[4,3-b]pyridine] | in good state and were survived | favorable antitumor activity | 77.0 ± 5.2 | 140 ± 20 mm^3 | 24.5 g | 102.41% | 7.29% | 59.3% | 91.8% | 95.6% | 7.8 ± 0.8 nM | 59.2% | 53.5% | 59.3% |  |  |  |
| CN(C)C(=O)c1ccc(-c2ccc3ncc(S(=O)(=O)n4ncc5ncc(-c6cnn(C)c6)cc54)n3c2)cc1 [Example 73, 1-{[6-(4-dimethylaminocarbonylphenyl)-imidazo[1,2-a]pyridine]-3-sulfonyl}-6-[(1-methyl)-4-pyrazolyl]-1-H-pyrazolo[4,3-b]pyridine] |  |  |  |  |  |  |  | 59.6% |  |  |  | 78% | 72.8% | 76.9% | 14.4% |  |  |
| Cn1cc(-c2cnc3cnn(S(=O)(=O)c4cnc5ccc(-c6cnn(C7CCN(C(=O)OC(C)(C)C)CC7)c6)cn45)c3c2)cn1 [Example 76, 1-{(6-{{1-[(1-t-butoxycarbonyl)-4-piperidinyl]}-4-pyrazolyl}-imidazo[1,2-a]pyridine)-3-sulfonyl}-6-[(1-methyl)-4-pyrazolyl]-1-H-pyrazolo[4,3-b]pyridine] |  |  |  |  |  |  |  | > 76.3% |  |  |  | 78% | 75.5% | 78.3% | 14.9% |  |  |
| Cn1cc(-c2cnc3cnn(S(=O)(=O)c4cnc5ccc(-c6ccc(F)cc6)cn45)c3c2)cn1 [Example 81, 1-{[6-(4-fluorophenyl)-imidazo[1,2-a]pyridine]-3-sulfonyl}-6-[(1-methyl)-4-pyrazolyl]-1-H-pyrazolo[4,3-b]pyridine] |  |  |  |  |  |  |  | > 68.7% |  |  |  | 72.9% | 73.6% | 80.2% | 24.7% |  |  |
| Cc1ccc(-c2ccc3ncc(S(=O)(=O)n4ncc5ncc(-c6cnn(C)c6)cc54)n3c2)cc1 [Example 90, 1-{[6-(4-methylphenyl)-imidazo[1,2-a]pyridine]-3-sulfonyl}-6-[(1-methyl)-4-pyrazolyl]-1-H-pyrazolo[4,3-b]pyridine] |  |  |  |  |  |  |  | > 72.2% |  |  |  | 69% | 83% | 81.1% | 17.6% |  |  |
| Cn1cc(-c2cnc3cnn(S(=O)(=O)c4cnc5ccc(-c6ccc(CN7CCOCC7)cc6)cn45)c3c2)cn1 [Example 91, 1-{[6-(4-morpholinomethylphenyl)-imidazo[1,2-a]pyridine]-3-sulfonyl}-6-[(1-methyl)-4-pyrazolyl]-1-H-pyrazolo[4,3-b]pyridine] |  |  |  |  |  |  |  | > 69.4% |  |  |  | 77.3% | 85.5% | 74.1% | 72.9% |  |  |
| COc1ccccc1-c1ccc2ncc(S(=O)(=O)n3ncc4ncc(-c5cnn(C)c5)cc43)n2c1 [Example 97, 1-{[6-(2-methoxyphenyl)-imidazo[1,2-a]pyridine]-3-sulfonyl}-6-[(1-methyl)-4-pyrazolyl]-1-H-pyrazolo[4,3-b]pyridine] |  |  |  |  |  |  |  | > 63.8% |  |  | 0.5 ± 0.1 nM | 51.7% | 62.7% | 65.5% |  | 67.8% |  |
| Cn1cc(-c2cnc3cnn(S(=O)(=O)c4cnc5ccc(-c6ccc(F)nc6)cn45)c3c2)cn1 [Example 99, 1-{[6-(2-fluoro-5-pyridinyl)-imidazo[1,2-a]pyridine]-3-sulfonyl}-6-[(1-methyl)-4-pyrazolyl]-1-H-pyrazolo[4,3-b]pyridine] |  |  |  |  |  |  |  | > 73.3% |  |  |  | 55.5% | 66.2% | 71.8% | 67.9% |  | 48.5% |
| Cn1cc(-c2cnc3cnn(S(=O)(=O)c4cnc5ccc(-c6cccc(C#N)c6)cn45)c3c2)cn1 [Example 100, 1-{[6-(3-cyanophenyl)-imidazo[1,2-a]pyridine]-3-sulfonyl}-6-[(1-methyl)-4-pyrazolyl]-1-H-pyrazolo[4,3-b]pyridine] |  |  |  |  |  |  |  | > 60.4% |  |  |  | 83.7% | 87.3% | 85.4% | 66.6% |  | 63.8% |
| CNC(=O)c1ccc(-c2ccc3ncc(S(=O)(=O)n4ncc5ncc(-c6cnn(CCN(C)C)c6)cc54)n3c2)cc1F [Example 102, 1-{(6-(3-fluoro-4-methylaminocarbonylphenyl)-imidazo[1,2-a]pyridine)-3-sulfonyl}-6-[(2-dimethylaminoethyl)-4-pyrazolyl]-1-H-pyrazolo[4,3-b]pyridine] |  |  |  |  |  |  |  | > 65.5% |  |  |  | 73.7% | 85.3% | 95.4% | 67.9% |  | 63.8% |
